From patent publication US4008329A, “Substituted cyclohexanes, pharmaceutical compositions containing them and method of treatment involving their use” (priority 1974, dated 1977)
Read-outs that look alike come from different tables or passages of the source.

Columns and labels:
[1] = system: depletion of serotonin (5HT) induced by H75/12; assay: Test using H75/12: inhibition of serotonin depletion; type: in vivo; conditions: Mus musculus, ip, 30 min before H75/12, mice, read-out: Percentage of inhibition of depletion on 5 HT; for inhibition at 40 mg/kg: 40 mg/kg I.P.; for inhibition at 10 mg/kg: 10 mg/kg I.P.; for inhibition at 30 mg/kg: 30 mg/kg I.P.; for inhibition at 20 mg/kg: 20 mg/kg I.P.
Method: In the experiments carried out, the H 75/12 was administered on two occasions with an interval of two hours between them, in a proportion of 100mg/kg by intraperitoneal method.
In Table I hereafter, the first figure represents the first dose in mg/kg by intraperitoneal method, of the product according to the invention, administered thirty minutes before the injection of H75/12, and the second figure represents the percentage of inhibition of the depletion of serotonin in relation to a reference batch which has received only H75/12. The compounds signified by Compound Nos. 1-14 in Table 1 are indicated hereafter in Table II.

[2] = LD50 oral, acute toxicity; conditions: mouse, in vivo; oral administration; mice
[3] = system: mice; assay: Supramaximal electrical shock test (corneal electrodes); type: in vivo; conditions: Mus musculus, po, P.O., dose which protects 50% of the animals from tonic tension, read-out: ED 50 ELECTROSHOCK
[4] = system: hypotension (H), tachycardia (T), and positive inotropism (I^+) induced by isoprenaline; assay: Cardiovascular parameters: modification of isoprenaline-induced hypotension, tachycardia and positive inotropism; type: in vivo, chloralised dogs; conditions: Canis lupus familiaris
Method: Experiments were carried out on chloralised dogs: these consisted of measuring, as a percentage relative to the […] of reference animals, the modifications caused by the products of the invention, administered in a proportion of 5mg/kg by intravenous route, on hypotension (H), tachycardia (T), and positive inotropism (I^+) induced by isoprenaline previously administered in a proportion of 0.5μg/kg by intravenous route.

[5] = 5 mg/kg intravenous, isoprenaline 0.5 μg/kg intravenous, chloralised dogs, read-out: Cardiovascular parameters, H (hypotension)
[6] = 5 mg/kg intravenous, isoprenaline 0.5 μg/kg intravenous, chloralised dogs, read-out: Cardiovascular parameters, I^+ (positive inotropism)
[7] = 5 mg/kg intravenous, isoprenaline 0.5 μg/kg intravenous, chloralised dogs, read-out: Cardiovascular parameters, T (tachycardia)

| Structure (SMILES) | inhibition at 40 mg/kg [1] | LD50 [2] | ED50 [3] | change in vivo at 5 mg/kg [4, 5] | change in vivo at 5 mg/kg [4, 6] | change in vivo at 5 mg/kg [4, 7] | change in vivo at 5 mg/kg ([4]; iv, read-out: Cardiovascular parameters, H (hypotension)) | change in vivo at 5 mg/kg ([4]; iv, read-out: Cardiovascular parameters, I^+ (positive inotropism)) | change in vivo at 5 mg/kg ([4]; iv, read-out: Cardiovascular parameters, T (tachycardia)) | inhibition at 10 mg/kg [1] | inhibition at 30 mg/kg [1] | inhibition at 20 mg/kg [1] |
| --- | --- | --- | --- | --- | --- | --- | --- | --- | --- | --- | --- | --- |
| CC(C)NC1CCCC(Oc2cccc(Cl)c2)C1O (stereo not shown) [Compound No. 1, 2-hydroxy-3-(3'-chloro-phenoxy)-N-isopropyl-cyclohexylamine] | 99% | 588 mg/kg | 100 mg/kg | 0% | 0% | 0% | – | – | – | – | – | – |
| CC(C)NCC(O)COc1cccc2ccccc12 (stereo not shown) [PROPRANOLOL, propranolol, reference compound] | – | – | – | – | – | – | -100% | -98% | -92% | – | – | – |
| CC(C)NC1CCCC(Oc2ccc(Cl)cc2)C1O (stereo not shown) [compound 2] | 42% | – | 300 mg/kg | 30% | -15% | -20% | – | – | – | – | – | – |
| CC(C)CNC1CCCC(Oc2ccc(Cl)cc2)C1O (stereo not shown) [compound 3] | – | – | 100 mg/kg | 0% | 0% | 0% | – | – | – | 30% | – | – |
| CC(C)CCNC1CCCC(Oc2ccc(Cl)cc2)C1O (stereo not shown) [compound 4] | – | – | 25 mg/kg | 0% | 0% | 0% | – | – | – | 59% | – | – |
| CC(C)NC1CCCC(Oc2ccccc2)C1O (stereo not shown) [compound 5] | 26% | – | – | 0% | 25% | -39% | – | – | – | – | – | – |
| CC(C)NC1CCCC(Oc2cccc(C(F)(F)F)c2)C1O (stereo not shown) [compound 6] | 74% | – | < 100 mg/kg | -18% | 0% | -20% | – | – | – | – | – | – |
| CC(C)CCNC1CCCC(Oc2cccc(C(F)(F)F)c2)C1O (stereo not shown) [compound 7] | – | – | 30 mg/kg | -50% | -38% | -50% | – | – | – | – | 93% | – |
| CC(C)NC1CCCC(Oc2ccc(F)cc2)C1O (stereo not shown) [compound 8] | 59% | – | 200 mg/kg | 0% | -27% | -10% | – | – | – | – | – | – |
| CN(C)C1CCCC(Oc2ccc(F)cc2)C1O (stereo not shown) [compound 9] | – | – | 250 mg/kg | 30% | 25% | 9% | – | – | – | – | – | 18% |
| CCCCNC1CCCC(Oc2cccc(Cl)c2)C1O (stereo not shown) [compound 10] | – | – | 80 mg/kg | 0% | 0% | 0% | – | – | – | – | 92% | – |
| CC(Cc1ccccc1)NC1CCCC(Oc2ccccc2)C1O (stereo not shown) [compound 11] | 118% | – | – | 0% | -10% | -60% | – | – | – | – | – | – |
| CC(Cc1ccccc1)NC1CCCC(Oc2ccc(F)cc2)C1O (stereo not shown) [compound 12] | – | – | < 50 mg/kg | 35% | 0% | -35% | – | – | – | – | – | 120% |
| NC1CCCC(Oc2ccc(Cl)cc2)C1O (stereo not shown) [compound 13] | 62% | – | – | 0% | 0% | 0% | – | – | – | – | – | – |
| CN(C)C1CCCC(Oc2ccc(Cl)cc2)C1O (stereo not shown) [compound 14] | 38% | – | – | 0% | 0% | 0% | – | – | – | – | – | – |
